Experimental data from US9945862B2, “Biomarkers for predicting and assessing responsiveness of thyroid and kidney cancer subjects to lenvatinib compounds” (Eisai R&D Management Co., Ltd., priority 2011, dated 2018).

Test system: differentiated thyroid cancer patients
Experiment: Tumor shrinkage (percent change of sum of diameters of target lesions) in E7080-treated DTC patients
Format: in vivo, human
Description: The period during which a patient takes E7080 was artificially divided into different Cycles for ease of evaluation and tracking. Patients received E7080 at a dose of 24 mg oral once daily in 28 day cycles. For analysis purposes, assessments of clinical outcomes were performed at the time of the 9 month and at 14 month minimum follow-up. For the E7080 Thyroid Cancer trial, each Cycle is 28 days (4 weeks) so Day 1-28 is cycle 1; Day 29 is Day 1 of Cycle 2; and Day 57 is Day 1 of Cycle 3. Blood samples were collected for pharmacokinetic (PK) analysis on Cycle 1 Days 1 and 8, Cycle 2 Day 1, and Cycle 3 Day 1. A total of 9 samples per patient were collected as follows: Cycle 1 Day 1: immediately prior to the dose of E7080, and at 0.5 and 2 hours following the first dose of E7080 (post-dose); Cycle 1 Day 8: immediately prior to the dose of E7080; Cycle 2 Day 1: immediately prior to the dose of E7080, 0.5 and 2 hours post-dose; Cycle 3 Day 1: immediately prior to the dose of E7080 and 2 hours post-dose. For analysis of progression free survival, PK parameter was used as a covariate in Cox proportional hazards model.
“Tumor shrinkage” (TS) means percent change of sum of diameters of target lesions, taking as reference the baseline sum diameters.
Also changes in thyroglobulin levels were associated with tumor shrinkage after completion of cycle 2 (56 days after treatment) (Speaman's rank correlation test, Table 8, middle).
Next, the factors associated with tumor shrinkage were investigated (Pearson's correlation coefficient test, Table 11).

COc1cc2nccc(Oc3ccc(NC(=O)NC4CC4)c(Cl)c3)c2cc1C(N)=O [E7080, 4-(3-chloro-4-(cyclopropylaminocarbonyl)aminophenoxy)-7-methoxy-6-quinolinecarboxamide]
% of tumor shrinkage (Median) (KRAS, NRAS (any of gene) mutation patients): −44.5% | % of tumor shrinkage (Median) (KRAS, NRAS wild type patients): −31.0% | % of tumor shrinkage (Median) (NRAS mutation patients): −45.5% | % of tumor shrinkage (Median) (NRAS wild type patients): −35.5%
